Legend:
CgtE (CJL-107) = experiment: Substrate specificity of CgtE (CJL-107), acceptor and donor substrates; type: biochemical, Campylobacter jejuni LIO87; settings: for Activity: enzyme CgtE (CJL-107)
Excerpt: A nucleic acid encoding a CgtE polypeptide, or a subsequence thereof, can be characterized by assaying for the expressed product. Assays based on the detection of the physical, chemical, or immunological properties of the expressed protein can be used. For example, one can identify a cloned CgtE nucleic acid B, by the ability of a protein encoded by the nucleic acid to catalyze the transfer of a galactose moiety from a donor substrate to an acceptor substrate. In one method, capillary electrophoresis is employed to detect the reaction products. This highly sensitive assay involves using either saccharide or disaccharide aminophenyl derivatives which are labeled with fluorescein as described in Wakarchuk et al. (1996) J. Biol. Chem. 271 (45): 28271-276. To assay for CgtE activity, Galα-Lac-FCHASE or GalNAc-α-FCHASE is used as a substrate. The reaction products of other glycosyltransferases can be detected using capillary electrophoresis, e.g., to assay for a Neisseria lgtC enzyme, either FCHASE-AP-Lac or FCHASE-AP-Gal can be used, whereas for the Neisseria lgtB enzyme an appropriate reagent is FCHASE-AP-GlcNAc (Wakarchuk, supra). To assay for α2,8-sialyltransferase, GM3-FCHASE is used as a substrate. See, e.g., U.S. Pat. No. 6,503,744, which is herein incorporated by reference. Other methods for detection of oligosaccharide reaction products include thin layer chromatography and GC/MS and are disclosed in U.S. Pat. No. 6,503,744, which is herein incorporated by reference.
CgtE used both Galα-Lac-FCHASE and GalNAc-α-FCHASE as acceptor substrate. CgtE enzymatic activity was higher when Galα-Lac-FCHASE was used as the acceptor substrate.

CgtE = experiment: Characterization of CgtE enzymatic activity (pH, divalent cations, truncation); type: biochemical, Campylobacter jejuni LIO87; settings: divalent cations necessary for activity
Excerpt: CgtE enzymatic activity was characterized further. CgtE activity was optimal from pH 7 to 7.5.

CgtE (CJL-107), sequence (as listed by the source): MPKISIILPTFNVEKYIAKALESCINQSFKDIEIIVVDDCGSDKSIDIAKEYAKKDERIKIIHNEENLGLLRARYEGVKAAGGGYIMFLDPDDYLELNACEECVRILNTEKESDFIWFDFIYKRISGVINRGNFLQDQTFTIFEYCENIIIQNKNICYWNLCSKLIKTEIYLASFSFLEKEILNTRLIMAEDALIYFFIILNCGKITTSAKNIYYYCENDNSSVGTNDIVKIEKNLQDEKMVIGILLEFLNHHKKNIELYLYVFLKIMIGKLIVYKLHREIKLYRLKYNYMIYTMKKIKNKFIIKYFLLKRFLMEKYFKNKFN

Molecule	CgtE enzymatic activity, comparison of acceptor substrates (CgtE (CJL-107); Galα-Lac-FCHASE versus GalNAc-α-FCHASE as acceptor)	Activity (CgtE (CJL-107); donor UDP-Gal)	Activity (CgtE (CJL-107); donor UDP-GalNAc)	CgtE activity with divalent cation relative to MgCl2 (CgtE)
Galα-Lac-FCHASE	higher	7.0 mU/mL	63.5 mU/mL	–
GalNAc-α-FCHASE	–	0.6 mU/mL	0.3 mU/mL	–
[Cl][Mn][Cl] [MnCl2]	–	–	–	two-fold higher
